Laboratory results published in the supplement of paper PMC5844555.

Columns and labels:
Test in all cases: 3' UTR reporter interaction score (median-centred robust z-score of log2 firefly/Renilla activity); higher = less repression of the 3' UTR reporter
Settings in all cases: HEK293T; 48 h
BRCA2 = tested on: BRCA2
How it was run: (§1)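 Firefly and Renilla luciferase activities were read 48 h post-transfection in HEK293T cells (10,000/well, 96-well plates). The cells had received 100 ng firefly luc2P reporter bearing the gene's 3' UTR, 20 ng Renilla pRL-TK control and 2.5 pmol miRNA mimic via DharmaFECT Duo. The interaction score, where more negative means interaction, is a per-plate robust z-score (median, median absolute deviation) of the log firefly/Renilla ratio, median-centred per miRNA and averaged over at least two independent screens.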

EZH2 = tested on: EZH2
How it was run: as §1

FBXW7 = tested on: FBXW7
How it was run: as §1

HRAS = tested on: HRAS
How it was run: as §1

MYB = tested on: MYB
How it was run: as §1

MYCN = tested on: MYCN
How it was run: as §1

MYC = tested on: MYC
How it was run: as §1

MYT1L = tested on: MYT1L
How it was run: as §1

NOTCH1 = tested on: NOTCH1
How it was run: as §1

PHF6 = tested on: PHF6
How it was run: as §1

PHOX2B = tested on: PHOX2B
How it was run: as §1

RB1 = tested on: RB1
How it was run: as §1

TP53 = tested on: TP53
How it was run: as §1

ZEB2 = tested on: ZEB2
How it was run: as §1

Row | Sequence | 3' UTR reporter interaction score (BRCA2) | 3' UTR reporter interaction score (EZH2) | 3' UTR reporter interaction score (FBXW7) | 3' UTR reporter interaction score (HRAS) | 3' UTR reporter interaction score (MYB) | 3' UTR reporter interaction score (MYCN) | 3' UTR reporter interaction score (MYC) | 3' UTR reporter interaction score (MYT1L) | 3' UTR reporter interaction score (NOTCH1) | 3' UTR reporter interaction score (PHF6) | 3' UTR reporter interaction score (PHOX2B) | 3' UTR reporter interaction score (RB1) | 3' UTR reporter interaction score (TP53) | 3' UTR reporter interaction score (ZEB2)
1 | AUGCACCUGGGCAAGGAUUCUG | 1.42 | 2.23 | -4.97 | 0.134 | 0.3 | -0.703 | 1.46 | 1.1 | 0.738 | -1.61 | -3.43 | -0.483 | -0.0328 | -2.03
2 | AUGGAGAUAGAUAUAGAAAU | -0.571 | 1.16 | 0.0761 | 0.428 | -0.0865 | -0.424 | 0.503 | -1.67 | -0.424 | -0.821 | 0.37 | -0.936 | 0.174 | 1.49
3 | AUGUAUGUGUGCAUGUGCAUG | -0.994 | 1.67 | 0.682 | 0.472 | -0.0409 | 0.324 | -1.3 | -0.904 | -0.54 | -1.08 | -0.089 | -1.83 | 0.0318 | -0.0851
4 | AUUACAUGGCCAAUCUC | -0.25 | -0.208 | 0.611 | -0.228 | 0.0435 | 0.193 | 0.104 | -0.267 | 0.461 | -0.0228 | 1.43 | -1.24 | 0.293 | -0.413
5 | AUUCAUUUGGUAUAAACCGCGAU | -0.573 | -0.0582 | -1.6 | 0.347 | -0.684 | 0.523 | 0.404 | -0.154 | 0.53 | 0.306 | -0.197 | 0.747 | -1.06 | 0.368
6 | AUUCCUAGAAAUUGUUCAUA | 0.0394 | 0.167 | 0.157 | -0.0105 | 0.61 | -0.577 | -0.586 | 1.2 | 0.632 | 0.216 | -0.529 | -0.707 | -0.0494 | -0.418
7 | AUUCUAAUUUCUCCACGUCUUUG | -0.103 | -4.24 | -0.826 | 0.632 | 0.162 | 0.587 | 0.0131 | 0.697 | -0.432 | -1.02 | 0.107 | -2.85 | 0.345 | -0.49
8 | AUUCUGCAUUUUUAGCAAGU | -0.0751 | 0.847 | -2.1 | 0.548 | 1.56 | 1.34 | 1.31 | -2.22 | -2.14 | 0.263 | -0.262 | 0.0642 | 0.643 | -0.209
9 | AUUGACACUUCUGUGAGUAG | 0.358 | -0.495 | -1.37 | -0.309 | 0.756 | 0.177 | -0.339 | 0.508 | -0.955 | -0.709 | -1.35 | 0.465 | 0.785 | -1.2
10 | CAAAAAUCUCAAUUACUUUUGC | -0.215 | 0.0697 | 0.748 | -0.151 | -1.38 | 0.123 | 0.393 | 0.42 | -0.966 | -0.915 | 0.42 | -0.319 | 0.17 | -0.266
11 | CAAAACUGGCAAUUACUUUUGC | -0.307 | 0.755 | -2.13 | 0.367 | -1.52 | -0.107 | -0.183 | -0.395 | 0.158 | -1.26 | -0.532 | 0.322 | 0.751 | 0.0176
12 | CAAAGAAUUCUCCUUUUGGGCUU | -0.174 | -0.313 | -0.499 | 0.0982 | 0.952 | 0.453 | -0.381 | 0.219 | 1.33 | -0.267 | -0.413 | 1.54 | -0.294 | -0.283
13 | CAAAGAGGAAGGUCCCAUUAC | -0.346 | -0.46 | 0.456 | 0.586 | 0.328 | 0.419 | -0.255 | -0.262 | -0.106 | -0.348 | -0.488 | -0.878 | -1.21 | 1.21
14 | CAAAGCGCUCCCCUUUAGAGGU | -0.715 | 0.467 | -0.27 | 1.33 | -0.147 | -0.228 | 0.756 | -0.44 | -0.101 | 1.12 | 0.264 | -1.27 | -0.173 | 1.31
15 | CAAAGCGCUUCCCUUUGGAGC | -0.805 | 0.322 | 0.503 | 0.795 | -0.305 | 0.103 | -0.581 | -0.495 | 0.413 | 0.27 | 0.957 | -0.468 | -0.385 | 0.353
16 | CAAAGCGCUUCUCUUUAGAGUG | 0.562 | 0.725 | -1.3 | 0.465 | -0.443 | -0.402 | 1.05 | -0.533 | 0.203 | 1.07 | -1.15 | -4.99e-18 | 0.068 | -0.101
17 | CAAAGUGCCUCCCUUUAGAGUGU | 0.407 | -0.27 | 0.81 | 0.317 | 0.155 | 0.839 | -0.351 | -0.343 | 0.00359 | 0.15 | 0.0452 | -0.937 | 0.418 | -0.0865
18 | CAAAGUGCUCAUAGUGCAGGUAG | 0.253 | -0.533 | 1 | 0.757 | -1.73 | -0.62 | -0.364 | -1.37 | 1.52 | 0.651 | 1.67 | 0.42 | 0.0738 | 1.98
19 | CAAAGUUUAAGAUCCUUGAAGU | 0.573 | 0.55 | -0.767 | 0.215 | 0.577 | -0.796 | -0.333 | 0.732 | -0.31 | 0.33 | -2.34 | 0.395 | -0.363 | -0.576
